Experiment: Stability in an aqueous vehicle
Format: physicochemical
Conditions: no test data printed

4(3)-(4-hydroxy-4-methylpentyl)-3-cyclohexene-1-carbonitrile [Example 1]
Stability in an aqueous vehicle: stable in an aqueous vehicle

Source: patent publication US8980819B2, “4(3)-(4-hydroxy-4-methylpentyl)-3-cyclohexene-1-carbonitrile” (Kao Corporation, priority 2013, dated 2015)
